{"source": "patent US20110160274A1", "about": "(PANACEA BIOTEC LIMITED, priority 2008, published 2011)", "origin": "cited, not measured here", "details": "after oral administration of fenofibrate", "data": [{"smiles": "CC(C)(Oc1ccc(C(=O)c2ccc(Cl)cc2)cc1)C(=O)O", "note": "[fenofibric acid]", "values": [{"measurement": "plasma elimination half life", "result": "about 20 hours"}]}]}
